Assay results reported in patent US20210338709A1, “USES OF MODIFIED RNA ENCODING RETINALDEHYDE DEHYDROGENASE” (priority 2018, published 2021).

Key:
[1] = test system: Salmonella; details: ATRA during parenteral immunization, reference 12; cited from earlier work
[2] = test system: mucosal memory responses; assay: Effect of ATRA on immune responses in skin-draining lymph nodes in vivo

For `CC1=C(/C=C/C(C)=C/C=C/C(C)=C/C(=O)O)C(C)(C)CCC1` [ATRA, all-trans retinoic acid], the “protection against Salmonella infections” value [1] is listed as “convey protection against Salmonella infections” and the “mucosal memory responses at mucosal surfaces” value [2] is listed as “not only enhanced in the small intestine, but also at other mucosal surfaces”.
